Where two headings read alike, the source gives them in different places.

Test [1] deals with T1, N-terminally FLAG-tagged PARP2 (amino acids 1-583) (Homo sapiens, UniProt Q9UGN5).
T1 construct: N-terminally FLAG-tagged PARP2 (amino acids 1-583)
Briefly: PARP2 probe displacement HTRF assay. It is filed as binding. As to conditions: binned Kd. How it is done: Data analysis was performed identical as for PARP1.
In general terms: Time-resolved FRET reads energy transfer from a long-lived donor to a nearby acceptor.

For test [2], the target named is T2, full length N-terminally FLAG-tagged PARP1 (Homo sapiens, UniProt P09874). Nature of the test: PARP1 probe displacement HTRF assay. As to conditions: for Kd: binned Kd; for Selectivity: PARP1 over PARP2, ratio Kd (PARP2)/Kd (PARP1).
T2 sequence (P09874 whole entry): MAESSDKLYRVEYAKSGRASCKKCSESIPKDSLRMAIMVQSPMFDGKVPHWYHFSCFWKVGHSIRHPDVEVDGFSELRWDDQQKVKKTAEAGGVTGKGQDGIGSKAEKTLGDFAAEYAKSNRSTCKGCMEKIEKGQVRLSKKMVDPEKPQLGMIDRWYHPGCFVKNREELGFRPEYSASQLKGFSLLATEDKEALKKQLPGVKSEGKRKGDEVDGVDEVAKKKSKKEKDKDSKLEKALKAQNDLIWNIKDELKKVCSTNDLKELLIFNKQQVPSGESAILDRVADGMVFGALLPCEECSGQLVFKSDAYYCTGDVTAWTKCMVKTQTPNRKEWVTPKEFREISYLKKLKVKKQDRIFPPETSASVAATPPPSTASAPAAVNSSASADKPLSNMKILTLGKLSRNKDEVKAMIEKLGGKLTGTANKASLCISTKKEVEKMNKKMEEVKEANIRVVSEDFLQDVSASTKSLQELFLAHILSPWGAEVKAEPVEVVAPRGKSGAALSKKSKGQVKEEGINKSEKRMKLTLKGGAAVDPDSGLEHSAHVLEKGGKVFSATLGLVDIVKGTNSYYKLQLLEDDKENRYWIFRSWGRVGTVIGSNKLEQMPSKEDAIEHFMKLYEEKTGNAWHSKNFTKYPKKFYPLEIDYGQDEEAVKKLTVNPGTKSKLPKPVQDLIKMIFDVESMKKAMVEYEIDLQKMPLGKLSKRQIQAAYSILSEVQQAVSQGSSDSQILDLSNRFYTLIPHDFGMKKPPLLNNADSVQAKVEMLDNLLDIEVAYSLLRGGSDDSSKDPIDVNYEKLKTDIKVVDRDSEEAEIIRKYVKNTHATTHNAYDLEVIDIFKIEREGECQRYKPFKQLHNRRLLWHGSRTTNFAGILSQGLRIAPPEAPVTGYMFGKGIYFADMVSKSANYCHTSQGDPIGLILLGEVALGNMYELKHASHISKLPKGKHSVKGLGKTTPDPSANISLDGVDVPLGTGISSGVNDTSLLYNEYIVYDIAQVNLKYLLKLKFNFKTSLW
For test [3], the target named is T2, full length N-terminally FLAG-tagged PARP1. Briefly: PARP1 biochemical DELFIA assay (auto-PARylation). Also noted: recombinant full length human N-terminally FLAG-tagged PARP1.
[4] abbreviates: binned IC50, biochemical auto-PARylation assay.
The mark [5] stands for this setting: read-out: PARP1 HTRF, PARP1 probe displacement HTRF.
Setting [6] is: binned IC50, PARP1 biochemical DELFIA assay.
Setting [7] is: read-out: PARP1 HTRF, probe displacement HTRF.

T1 sequence (Q9UGN5 whole entry, the tested form may be a part): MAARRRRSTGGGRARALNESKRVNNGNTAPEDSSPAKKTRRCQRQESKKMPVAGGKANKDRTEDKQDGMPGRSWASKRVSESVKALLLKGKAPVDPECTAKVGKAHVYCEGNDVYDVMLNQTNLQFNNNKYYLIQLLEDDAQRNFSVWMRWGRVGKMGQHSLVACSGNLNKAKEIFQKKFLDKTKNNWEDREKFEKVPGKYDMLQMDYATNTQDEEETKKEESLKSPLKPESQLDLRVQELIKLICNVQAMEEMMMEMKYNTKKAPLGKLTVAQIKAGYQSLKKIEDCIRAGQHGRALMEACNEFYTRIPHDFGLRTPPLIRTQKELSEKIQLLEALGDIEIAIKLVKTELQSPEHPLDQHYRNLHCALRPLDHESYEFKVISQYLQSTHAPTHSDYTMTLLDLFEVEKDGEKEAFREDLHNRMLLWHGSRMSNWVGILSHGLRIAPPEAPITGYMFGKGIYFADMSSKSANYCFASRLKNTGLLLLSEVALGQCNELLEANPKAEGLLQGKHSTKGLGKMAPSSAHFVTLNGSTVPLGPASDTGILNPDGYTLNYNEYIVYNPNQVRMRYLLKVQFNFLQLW

Usually IC50 stands for the concentration needed to halve the response being measured. For the molecule `O=C(NC1CC1)c1ncc(N2CCC(N3CC4(c5nc6ccc(F)cc6c(=O)[nH]5)CC3C4)CC2)cc1F` [Compound 411], the Kd is 100 to 1000 nM in test [1] (probe displacement HTRF) and below 10 nM in test [2] (PARP1 HTRF, probe displacement HTRF). Moreover, in test [2] (probe displacement HTRF), the Selectivity result is “+++ (+++ indicate a value of at least 100)”. The IC50 in test [3] (setting [4]) is below 10 nM.

Take `CNC(=O)c1ccc(N2CCC(N3CCC(c4nc5cccc(C(F)(F)F)c5c(=O)[nH]4)C3)CC2)cn1` (single isomer, unassigned) [Compound 86a]: the Kd is 100 to 1000 nM in test [1] (PARP2 probe displacement HTRF) and 10 to 100 nM in test [2] (setting [5]). Also, in test [2] (probe displacement HTRF), the Selectivity result was “+ (+ indicates a value of 10 to less than 50)”. In addition, the IC50 in test [3] (setting [6]) was 10 to 100 nM.

On to `CNC(=O)c1ccc(N2CCC(N3CCC(c4cc5cccc(OC)c5c(=O)[nH]4)C3)CC2)cn1` (single isomer, unassigned) [Compound 249b], for which the Kd is above 10000 nM in test [1] (probe displacement HTRF) and 100 to 1000 nM in test [2] (setting [7]). The Selectivity entry in test [2] (probe displacement HTRF) was “+ (+ indicates a value of 10 to less than 50)”. In addition, the IC50 in test [3] (setting [4]) lay in the range of 100 to 1000 nM.

`CNC(=O)c1ccc(N2CCC(N3CCC(c4nc5ccccc5c(=O)[nH]4)C3)CC2)c(C(F)F)n1` (single isomer, unassigned) [Compound 158b]: the Kd in test [1] (PARP2 probe displacement HTRF) lay in the range of 1000 to 10000 nM; in test [2] (setting [5]), 10 to 100 nM. In test [2] (probe displacement HTRF), the Selectivity entry is listed as “+++ (+++ indicate a value of at least 100)”. Also, the IC50 in test [3] (setting [6]) was in the range of 10 to 100 nM.

Consider `CNC(=O)c1ccc(N2CCC(N3CCCC(c4nc5ccccc5c(=O)[nH]4)C3)CC2)c(C)n1` (single isomer, unassigned) [Compound 131a], for which the Kd in test [1] (PARP2 probe displacement HTRF) is 1000 to 10000 nM; in test [2] (setting [5]), 100 to 1000 nM. The Selectivity entry in test [2] (probe displacement HTRF) is recorded as “+ (+ indicates a value of 10 to less than 50)”. The IC50 in test [3] (setting [6]) lay in the range of 10 to 100 nM.

As to `CNC(=O)c1ccc(N2CCC(N3CCC(c4ccc(CC(F)(F)F)c(=O)[nH]4)C3)CC2)cn1` (single isomer, unassigned) [Compound 188a], the Kd in test [1] (PARP2 probe displacement HTRF) was above 10000 nM; in test [2] (setting [5]), 100 to 1000 nM. Besides, in test [2] (probe displacement HTRF), the Selectivity entry is listed as “+ (+ indicates a value of 10 to less than 50)”. Also, the concentration for half-maximal inhibition (IC50) in test [3] (setting [6]) fell in the range of 100 to 1000 nM.

As for `CC(=O)Nc1ccc(N2CCC(N3CCC(c4nc5ccccc5c(=O)[nH]4)C3)CC2)cn1` (single isomer, unassigned) [Compound 220b], the Kd in test [1] (probe displacement HTRF) lay in the range of 1000 to 10000 nM; in test [2] (setting [7]), 10 to 100 nM. Further, in test [2] (probe displacement HTRF), the Selectivity entry is recorded as “+ (+ indicates a value of 10 to less than 50)”. The IC50 in test [3] (setting [4]) lay within 10 to 100 nM.

Turning to `CNC(=O)c1ncc(N2CCC(N3CCC(c4cc5cccc(F)c5c(=O)[nH]4)C3)CC2)cn1` (racemic) [Compound 215rac], the Kd in test [1] (PARP2 probe displacement HTRF) was in the range of 100 to 1000 nM; in test [2] (setting [5]), 10 to 100 nM. The Selectivity entry in test [2] (probe displacement HTRF) is “− (− indicates a value of less than 10)”. In addition, the IC50 in test [3] (setting [6]) was 10 to 100 nM.

On to `CCc1ccc(C2CCN(C3CCN(c4ccc(C(=O)NCC(F)F)nc4F)CC3)C2)[nH]c1=O` (single isomer, unassigned) [Compound 398b], for which the Kd is 100 to 1000 nM in test [1] (probe displacement HTRF) and below 10 nM in test [2] (setting [7]). Further, in test [2] (probe displacement HTRF), the Selectivity entry is on record as “+++ (+++ indicate a value of at least 100)”. For the same molecule, the IC50 in test [3] (setting [4]) was below 10 nM.

Turning to `CNC(=O)c1ccc(N2CCC(N3CCC(c4cc5c(c(C(F)(F)F)nn5C)c(=O)[nH]4)C3)CC2)cn1` (racemic) [Compound 244rac], the Kd in test [1] (probe displacement HTRF) and in test [2] (setting [7]) was below 10 nM each time. Besides, in test [2] (probe displacement HTRF), the Selectivity entry was “− (− indicates a value of less than 10)”. The IC50 in test [3] (setting [4]) was below 10 nM.

Turning to `CCc1ccc(C2CCN(C3CCN(c4ccc(C(=O)NCC(F)(F)F)nc4F)CC3)C2)[nH]c1=O` (single isomer, unassigned) [Compound 285b], the Kd in test [1] (probe displacement HTRF) was above 10000 nM; in test [2] (setting [7]), below 10 nM. Besides, in test [2] (probe displacement HTRF), the Selectivity entry is on record as “+++ (+++ indicate a value of at least 100)”. Further, the IC50 in test [3] (setting [4]) is below 10 nM.

For the molecule `N#Cc1ccc(N2CCC(N3CCC(c4cc5cccc(F)c5c(=O)[nH]4)C3)CC2)c(Cl)c1` (single isomer, unassigned) [Compound 378b], the Kd in test [1] (probe displacement HTRF) is 1000 to 10000 nM; in test [2] (setting [7]) it was below 10 nM. In addition, in test [2] (probe displacement HTRF), the Selectivity entry was “+++ (+++ indicate a value of at least 100)”. Also, in test [3] (setting [4]), the IC50 is below 10 nM.

As to `CS(=O)(=O)NC(=O)c1ccc(N2CCC(N3CCC(c4cc5ccccc5c(=O)[nH]4)C3)CC2)cc1` (single isomer, unassigned) [Compound 342a], the Kd in test [1] (probe displacement HTRF) and in test [2] (setting [7]) was 100 to 1000 nM in each case. Further, the Selectivity result in test [2] (probe displacement HTRF) is on record as “− (− indicates a value of less than 10)”. Moreover, in test [3] (setting [4]), the 50% inhibitory concentration (IC50) is 100 to 1000 nM.

`CNC(=O)c1ccc(N2CCC(N3CCC(c4ccc(OC)c(=O)[nH]4)C3)CC2)c(C(F)(F)F)n1` (single isomer, unassigned) [Compound 152b]: the figures for the Kd in test [1] (PARP2 probe displacement HTRF) and in test [2] (setting [5]) were above 10000 nM and 10 to 100 nM, respectively. Also, the Selectivity entry in test [2] (probe displacement HTRF) was “++ (++ indicates a value of 50 to less than 100)”. Moreover, in test [3] (setting [6]), the IC50 lay in the range of 10 to 100 nM.

As to `CNC(=O)c1ccc(OCCCN2CCC(c3nc4ccccc4c(=O)[nH]3)CC2)cn1` [Compound 2, N-methyl-5-(3-(4-(4-oxo-3,4-dihydroquinazolin-2-yl)piperidin-1-yl)propoxy)picolinamide], the Kd in test [1] (PARP2 probe displacement HTRF) is 1000 to 10000 nM; in test [2] (PARP1 HTRF, PARP1 probe displacement HTRF) it was below 10 nM. Further, the Selectivity result in test [2] (probe displacement HTRF) is on record as “+++ (+++ indicate a value of at least 100)”. Also, the IC50 in test [3] (setting [6]) is below 10 nM.

For the molecule `CNC(=O)c1cnc(N2CCC(N3CCCC(c4nc5ccccc5c(=O)[nH]4)C3)CC2)cn1` (single isomer, unassigned) [Compound 99a], the Kd in test [1] (PARP2 probe displacement HTRF) was above 10000 nM; in test [2] (setting [5]), 1000 to 10000 nM. Also, the Selectivity entry in test [2] (probe displacement HTRF) is listed as “− (− indicates a value of less than 10)”. The IC50 in test [3] (setting [6]) was in the range of 1000 to 10000 nM.

As for `CNC(=O)c1ccc(N2CCC(N3CCCC(c4ncc(C)c(=O)[nH]4)C3)CC2)cn1` (single isomer, unassigned) [Compound 33b], the Kd in test [1] (PARP2 probe displacement HTRF) is above 10000 nM; in test [2] (setting [5]), 10 to 100 nM. The Selectivity entry in test [2] (probe displacement HTRF) is “++ (++ indicates a value of 50 to less than 100)”. Also, the IC50 in test [3] (setting [6]) is 10 to 100 nM.

On to `CNC(=O)c1ccc(N2CCC(N3CCC(c4nc5c(F)ccc(F)c5c(=O)[nH]4)C3)CC2)cn1` (single isomer, unassigned) [Compound 182a], for which the Kd lay in the range of 100 to 1000 nM in test [1] (PARP2 probe displacement HTRF) and 10 to 100 nM in test [2] (setting [5]). In addition, the Selectivity result in test [2] (probe displacement HTRF) was “+ (+ indicates a value of 10 to less than 50)”. For the same molecule, the IC50 in test [3] (setting [6]) lay in the range of 10 to 100 nM.

Regarding `CNC(=O)c1ccc(N2CCC(N3CCC(c4cnc(CC(F)(F)F)c(=O)[nH]4)C3)CC2)cn1` (single isomer, unassigned) [Compound 287a], the figures for the Kd in test [1] (probe displacement HTRF) and in test [2] (setting [7]) were above 10000 nM and 10 to 100 nM, respectively. In addition, the Selectivity entry in test [2] (probe displacement HTRF) is on record as “++ (++ indicates a value of 50 to less than 100)”. Besides, in test [3] (setting [4]), the IC50 was 10 to 100 nM.

`O=c1[nH]c(C2CCN(C3CCN(c4ccc(F)cc4F)CC3)C2)nc2ccccc12` (single isomer, unassigned) [Compound 107b]: the Kd in test [1] (PARP2 probe displacement HTRF) and in test [2] (setting [5]) was 100 to 1000 nM in each case. Moreover, the Selectivity entry in test [2] (probe displacement HTRF) is “− (− indicates a value of less than 10)”. Moreover, in test [3] (setting [6]), the half-maximal inhibitory concentration (IC50) was 100 to 1000 nM.

For `CNC(=O)c1ccc(N2CCC(N3CCCC(c4nc5ccccc5c(=O)[nH]4)C3)CC2)c(F)n1` (racemic) [Compound 103rac], the Kd in test [1] (PARP2 probe displacement HTRF) is 1000 to 10000 nM; in test [2] (setting [5]), below 10 nM. For the same molecule, the Selectivity result in test [2] (probe displacement HTRF) was “+++ (+++ indicate a value of at least 100)”. The IC50 in test [3] (setting [6]) was below 10 nM.
